Earlier results, collected in PMC10444862, “Using macromolecular electron densities to improve the enrichment of active compounds in virtual screening” (Communications Chemistry, 2023).

Tested on: AMPC
Details: activities reported in the DUD-E dataset; cited from earlier work

Structure (SMILES)	label
O=C(O)c1sccc1S(=O)(=O)Nc1ccccc1N1CCCCC1 [104_58, O=C([O-])c1sccc1S(=O)(=O)Nc1ccccc1N1CCCCC1]	active
O=C(O)c1ccccc1S(=O)(=O)Nc1ccc(Cl)cc1 [109_49, O=C([O-])c1ccccc1S(=O)(=O)Nc1ccc(Cl)cc1]	active
CSCC[C@@H](C(=O)O)N1C(=O)c2ccc(C(=O)O)cc2C1=O [212_4, CSCC[C@@H](C(=O)[O-])N1C(=O)c2ccc(C(=O)[O-])cc2C1=O]	active
Nc1onc(-c2ccc(Cl)cc2)c1C(=O)O [317_12, Nc1onc(-c2ccc(Cl)cc2)c1C(=O)[O-]]	active
Cc1nc2ccc(P(=O)(O)O)cc2s1 [319_2, Cc1nc2ccc([P@](=O)([O-])O)cc2s1]	active
